Measured values from the supplement of paper PMC10307832.

Experiments:
Assay in all cases: relative viability (nuclei count vs DMSO), 5 days (fraction); higher = more cells survive
GW-2580 + Phenformin = compound: COC1=CC=C(C=C1)COC2=C(C=C(C=C2)CC3=CN=C(N=C3N)N)OC [GW-2580] + N=C(N)NC(=N)NCCc1ccccc1 [Phenformin] (partner 250 µM)
How it was run: (§1)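 Relative viability was taken as the ratio of nuclei in treated wells to nuclei in vehicle wells. Lung cancer cell lines in 1536-well plates received compounds by pin tool one day after seeding, either one drug alone or a fixed anchor-drug dose plus five library-drug doses (not always all listed) in √10 steps. Nuclei were counted on 4× images after 5 days of treatment, and values are medians of duplicate plates.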

Fedratinib + Tozasertib = compound: Cc1cnc(Nc2ccc(OCCN3CCCC3)cc2)nc1Nc1cccc(S(=O)(=O)NC(C)(C)C)c1 [Fedratinib] + Cc1cc(Nc2cc(N3CCN(C)CC3)nc(Sc3ccc(NC(=O)C4CC4)cc3)n2)n[nH]1 [Tozasertib] (partner 0.1 µM)
How it was run: as §1

Fedratinib + Pictilisib = compound: Cc1cnc(Nc2ccc(OCCN3CCCC3)cc2)nc1Nc1cccc(S(=O)(=O)NC(C)(C)C)c1 [Fedratinib] + CS(=O)(=O)N1CCN(Cc2cc3nc(-c4cccc5[nH]ncc45)nc(N4CCOCC4)c3s2)CC1 [Pictilisib] (partner 1 µM)
How it was run: as §1

Fedratinib + Vorinostat = compound: Cc1cnc(Nc2ccc(OCCN3CCCC3)cc2)nc1Nc1cccc(S(=O)(=O)NC(C)(C)C)c1 [Fedratinib] + O=C(CCCCCCC(=O)Nc1ccccc1)NO [Vorinostat] (partner 1 µM)
How it was run: as §1

Fedratinib + Palbociclib = compound: Cc1cnc(Nc2ccc(OCCN3CCCC3)cc2)nc1Nc1cccc(S(=O)(=O)NC(C)(C)C)c1 [Fedratinib] + CC(=O)c1c(C)c2cnc(Nc3ccc(N4CCNCC4)cn3)nc2n(C2CCCC2)c1=O [Palbociclib] (partner 0.5 µM)
How it was run: as §1

Fedratinib + Alpelisib = compound: Cc1cnc(Nc2ccc(OCCN3CCCC3)cc2)nc1Nc1cccc(S(=O)(=O)NC(C)(C)C)c1 [Fedratinib] + Cc1nc(NC(=O)N2CCC[C@H]2C(N)=O)sc1-c1ccnc(C(C)(C)C(F)(F)F)c1 [Alpelisib] (partner 2 µM)
How it was run: as §1

Cell Line	relative viability (GW-2580 + Phenformin; first compound 0.08 µM)	relative viability (GW-2580 + Phenformin; first compound 0.8 µM)	relative viability (GW-2580 + Phenformin; first compound 2.53 µM)	relative viability (GW-2580 + Phenformin; first compound 8 µM)	relative viability (Fedratinib + Tozasertib; first compound 0.1 µM)	relative viability (Fedratinib + Tozasertib; first compound 0.3162 µM)	relative viability (Fedratinib + Tozasertib; first compound 1 µM)	relative viability (Fedratinib + Pictilisib; first compound 0.1 µM)	relative viability (Fedratinib + Pictilisib; first compound 0.3162 µM)	relative viability (Fedratinib + Pictilisib; first compound 1 µM)	relative viability (Fedratinib + Vorinostat; first compound 0.1 µM)	relative viability (Fedratinib + Vorinostat; first compound 0.3162 µM)	relative viability (Fedratinib + Vorinostat; first compound 1 µM)	relative viability (Fedratinib + Palbociclib; first compound 0.1 µM)	relative viability (Fedratinib + Palbociclib; first compound 0.3162 µM)	relative viability (Fedratinib + Palbociclib; first compound 1 µM)	relative viability (Fedratinib + Alpelisib; first compound 0.1 µM)	relative viability (Fedratinib + Alpelisib; first compound 0.3162 µM)	relative viability (Fedratinib + Alpelisib; first compound 1 µM)
EKVX	0.244	0.264	0.212	0.233	0.359	0.343	0.407	0.497	0.426	0.504	0.736	0.737	0.728	0.391	0.403	0.414	0.898	1.04	0.931
EMC-BAC-2	0.558	0.501	0.416	0.493	0.201	0.268	0.227	0.499	0.575	0.538	0.418	0.566	0.317	0.533	0.503	0.489	0.85	0.754	0.711
EPLC-272H	0.272	0.339		0.354	0.178	0.318	0.251	0.257	0.35	0.0901	0.547	0.375	0.335	0.318	0.339	0.365	1.05	0.915	0.914
H3255	0.277	0.848	0.702	0.359	0.578	0.537	0.655	0.42	0.48	0.432	0.84	0.876	0.696	0.277	0.303	0.318	0.458	0.715	0.652
HARA	0.461	0.524	0.328	0.304	0.107	0.105	0.0905	0.348	0.422	0.306	0.512	0.629	0.51	0.261	0.301	0.214	0.84	0.793	0.743
HCC-15	0.537	0.486	0.426	0.515	0.165	0.339	0.341	0.581	0.713	0.28	0.875	0.824	0.845	0.664	0.708	0.636	0.746	0.793	0.758
HCC-44	0.181	0.153	0.183	0.253	0.258	0.843	0.805	0.407	0.623	0.465	1.13	1.08	1.01	0.95	0.968	0.983	0.759	0.771	0.801
HCC-78	0.743	0.655	0.543	0.583	0.402	0.36	0.392	0.227		0.226	0.382	0.514	0.469	0.47	0.443	0.476	0.324		0.34
HCC-366	0.682	0.573	0.595	0.546	0.0591	0.123	0.072	0.136	0.0976	0.19	0.302	0.343	0.249	0.603	0.355	0.315	0.273	0.458	0.356
HCC-827	0.451	0.442	0.436	0.447	0.345	0.387	0.409	0.99	0.927	0.941	0.862	0.841	0.75	0.454	0.485	0.475	1.04	0.95	1.02
HOP-62	0.758	0.744	0.637	0.655	0.289	0.362	0.358	0.809	0.709	0.531	0.64	0.605	0.594	0.437	0.426	0.393	0.941	0.759	0.89
LC-2-ad	0.595	0.674	0.634	0.682	0.335	0.423	0.41	0.422	0.531	0.115	0.582	0.804	0.705	0.535	0.486	0.476	0.932	0.879	0.772
LCLC-97TM1	0.443	0.469	0.438	0.454	0.175	0.213	0.19	0.196	0.169	0.15	0.74	0.669	0.456	0.215	0.235	0.183	0.201	0.288	0.189
LCLC-103H	0.345	0.328	0.331	0.376	0.304	0.524	0.381	0.536	0.678	0.512	0.768	0.752	0.718	0.479	0.502	0.477	1.07	0.816	0.938
LK-2	0.37	0.544	0.318	0.391	0.186	0.193	0.161		0.563	0.399	0.37	0.242	0.303	0.55	0.581	0.608		0.936	0.936
LOU-NH91	0.692	0.757	0.611	0.66	0.388	0.73	0.64	0.432	0.53	0.516	0.777	1.09	0.782	0.573	0.544	0.543	0.615	0.785	0.676
LU99A	0.773	0.823	0.647	0.808	0.209	0.291	0.276	0.325	0.369	0.217	0.454	0.513	0.41	0.469	0.382	0.392	0.55	0.518	0.387
LXF-289	0.514	0.521	0.489	0.506	0.149	0.185	0.151	0.811	0.747	0.694	0.765	0.748	0.775	0.611	0.559	0.558	1.06	0.997	1.05
NCI-H23	0.872	0.768	0.798	0.851	0.528	0.364	0.303	0.428	0.619	0.156	0.56	0.36	0.453	0.555	0.497	0.4	0.585	0.743	0.598
NCI-H322M	0.787	0.819	0.866	0.782	0.52	0.447	0.333	0.5	0.503	0.406	0.87	0.969	0.735	0.487	0.473	0.454	0.814	0.75	0.771
NCI-H358	0.365	0.518	0.36	0.353	0.0945	0.0925	0.0987	0.319	0.395	0.26	0.656	0.654	0.634	0.131	0.0975	0.107	0.773	0.768	0.466
NCI-H441	0.997	0.852	0.773	1.05	0.412	0.538	0.575	0.441	0.42	0.239	0.921	0.749	0.615	0.195	0.176	0.204	0.607	0.655	0.557
NCI-H460	0.713	0.576	0.494	0.528	0.078	0.379	0.334	0.354	0.316	0.295	1.14	0.768	0.736	0.163	0.142	0.06	0.536	0.581	0.259
NCI-H520	0.79	0.59	0.592	0.587	0.438	0.467	0.405	0.267	0.315	0.215	0.657	0.654	0.634	0.149	0.214	0.164	0.912	0.845	0.805
NCI-H647	0.605	0.623	0.401	0.661	0.249	0.336	0.214	0.377	0.477	0.309	0.61	0.782	0.385	0.346	0.362	0.364	1.13	1.09	0.809
NCI-H650	0.43	0.474	0.392	0.481	0.312	0.764	0.69		0.701	0.727	0.381	0.42	0.332	0.285	0.345	0.324		1.03	0.865
NCI-H661	0.269	0.282	0.282	0.271	0.327	0.326	0.371	0.404	0.355	0.329	0.785	0.833	0.716	0.397	0.401	0.359	0.835	0.452	0.629
NCI-H727	0.662	0.574	0.499	0.652	0.493	0.823	0.656	0.378	0.317	0.164	1.15	1.08	1.13	0.483	0.652	0.624	0.597	0.609	0.532
